# “And” between values parts separate entries of the source, which are not always exact repeats. Identical values can stand only once. Like-named read-outs stand apart in the source and are kept apart here.
# Columns and labels:
# [1] = target: T1, human serum albumin (HSA) (Homo sapiens, UniProt P02768); test: Taylor dispersion (OneStep) SPR, kinetic analysis of flavonoids on immobilized HSA; assay type: binding; conditions: for kon / koff: pH 7.4, HSA
# T1 construct: purchased Sigma Aldrich
# Experimental: (§1) Hydroxyl-gel modified sensor chips and coupling reagents for the Pioneer SPR instrument (SensiQ Technologies, Oklahoma City, OK, USA) were obtained from Xantec (Duesseldorf, Germany). […] All analyses were performed at 25 °C. 10 mM HEPES (pH 7.4) with 150 mM NaCl, 0.005% Tween-20, 1.26 mM EDTA, and 5% DMSO was used as the running buffer.
# (§2) HSA (essentially fatty acid free; Sigma Aldrich, St. Louis, MO, USA) and GSTP1 (Fitzgerald Industries International, North Acton, MA, USA) (50 μg/mL in 10 mM sodium acetate, pH 5.0) were immobilized on polycarboxylate hydrogel sensor chip surfaces using a standard amine-coupling protocol (flow rate of 10 μL/min) to obtain a density of 10–12 kRU [18]. Each of the four flavonoids was dissolved in DMSO to achieve a high concentration, then further diluted to a final 5% DMSO concentration in running buffer. Typically, the flavonoid concentration series spanned 0.01–500 μM. Five blanks were analyzed at the beginning of the analysis, and the remaining blanks were randomly injected throughout the analysis for double-referencing purposes.
# (§3) In this study, we explored the SensiQ Pioneer’s dynamic SPR capability (also known as the OneStep® injection method), which is essentially a Taylor dispersion to create a gradient injection to quantify biomolecular interactions. In the Taylor dispersion method, analyte concentration is initially uniform, but it gradually changes into a sigmoidal gradient due to the combined actions of analyte diffusion and convective laminar flow within the dispersion capillary. This method saves sample preparation time, lessens the need for limited-supply sample materials, and eliminates possible human errors in the preparation of sample dilutions. Since the compounds are screened over a broader dilution range, content-rich data can be obtained from the preliminary screening step itself, and oftentimes, secondary screening can be avoided. A Taylor dispersion gradient injection of sucrose (3% w/v in running buffer) was performed in parallel as a diffusion standard to account for experimental deviations such as buffer viscosity, flow rate, temperature, etc. The analytes were injected in running buffer using the same Taylor diffusion gradient injection mode with a flow rate of 25 μL/min.
# (§4) SPR response data (sensorgrams) were zeroed at the beginning of each injection and double referenced. For kinetic analyses, the responses were plotted against the analyte concentration and fit to a 1:1 (A + B = AB) or 1:2 (A + 2B = AB1 + AB2) binding model using Qdat analysis software (SensiQ Technologies, Inc., Oklahoma City, OK, USA) and GraphPad Prism 5.04 (GraphPad Software Inc., La Jolla, CA, USA).
# [2] = target: T2, glutathione S-transferase pi isoform-1 (GSTP1) (Homo sapiens, UniProt P09211); test: Taylor dispersion (OneStep) SPR, equilibrium analysis of flavonoids on immobilized GSTP1; conditions: GSTP1, one binding site, 1:1 equilibrium analysis model, 25 °C
# T2 construct: purchased Fitzgerald Industries International
# T2 sequence (P09211 whole entry, canonical isoform): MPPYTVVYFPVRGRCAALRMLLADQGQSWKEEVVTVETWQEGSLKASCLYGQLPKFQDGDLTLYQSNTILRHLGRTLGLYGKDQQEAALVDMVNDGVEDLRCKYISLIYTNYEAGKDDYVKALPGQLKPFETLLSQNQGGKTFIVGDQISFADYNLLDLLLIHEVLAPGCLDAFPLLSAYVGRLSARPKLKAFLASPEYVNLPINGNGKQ
# Experimental: as §1, §2, §3
# as §4, with “USA). […]” for “USA).”
# [3] = target: T1, human serum albumin (HSA); test: Conventional (standard fixed-concentration injection) SPR, HSA-quercetin validation; assay type: binding
# Experimental: as §1, §2
# For assay validation, a conventional SPR method was used as a comparison. The interaction of HSA with quercetin was chosen for validation. For the conventional SPR method, analyte dilutions were prepared manually in a twofold dilution series starting with 500 μM as the highest concentration. […]
# [4] = HSA, Site 1, 25 °C, OneStep SPR, global kinetic fit (1:2 model; kaempferol 1:1), read-out: KD (equilibrium dissociation constant), Site 1
# [5] = human, Site 1, 25 °C, OneStep SPR, global kinetic fit (1:2 model; kaempferol 1:1), read-out: ka (association rate constant), Site 1
# [6] = human, Site 1, 25 °C, OneStep SPR, global kinetic fit (1:2 model; kaempferol 1:1), read-out: kd (dissociation rate constant), Site 1
# [7] = human, Site 2, 25 °C, OneStep SPR, 1:2 model, read-out: ka (association rate constant), Site 2
# [8] = human, Site 2, 25 °C, OneStep SPR, 1:2 model, read-out: kd (dissociation rate constant), Site 2
# T1 sequence (P02768 25-609): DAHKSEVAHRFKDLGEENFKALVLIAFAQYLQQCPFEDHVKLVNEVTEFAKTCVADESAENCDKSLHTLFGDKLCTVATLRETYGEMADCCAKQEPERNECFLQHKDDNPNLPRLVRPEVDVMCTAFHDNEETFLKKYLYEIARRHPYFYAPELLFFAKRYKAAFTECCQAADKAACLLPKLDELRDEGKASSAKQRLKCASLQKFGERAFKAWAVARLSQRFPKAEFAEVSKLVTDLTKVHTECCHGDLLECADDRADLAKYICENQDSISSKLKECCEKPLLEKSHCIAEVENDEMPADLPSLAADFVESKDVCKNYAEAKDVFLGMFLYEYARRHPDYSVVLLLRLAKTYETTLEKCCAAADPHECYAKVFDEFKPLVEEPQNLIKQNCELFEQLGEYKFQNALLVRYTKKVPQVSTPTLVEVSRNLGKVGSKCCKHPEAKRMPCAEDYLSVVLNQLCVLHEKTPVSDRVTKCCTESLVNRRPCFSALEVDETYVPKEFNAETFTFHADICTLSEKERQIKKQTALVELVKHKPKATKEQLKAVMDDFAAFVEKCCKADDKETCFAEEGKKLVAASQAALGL
SMILES,"Kd [1, 4] [µM]","kon [1, 5] [M⁻¹ s⁻¹]","koff [1, 6] [s⁻¹]",Kd [2],"Kd ([1]; human, pH 7.4) [µM]","kon [1, 7] [M⁻¹ s⁻¹]","koff [1, 8] [s⁻¹]","Kd ([3]; HSA, conventional SPR, two fold dilution series from 500 μM, quadruplicate, 1:2 model, read-out: KD1 (affinity towards HSA)) [nM]","Kd ([3]; human, pH 7.4) [nM]"
"O=c1c(O)c(-c2ccc(O)cc2)oc2cc(O)cc(O)c12 [Kaempferol, kaempferol]",0.037,48400 ± 6e+06,0.002 ± 0.002,45 ± 0.2 µM,–,–,–,–,–
"O=c1cc(-c2ccc(O)c(O)c2)oc2cc(O)cc(O)c12 [Luteolin, luteolin]",63.4,3200 ± 300000,0.205 ± 0.005,31.5 ± 0.2 µM,406,17.1 ± 1,0.007 ± 0.001,–,–
"O=c1c(O)c(-c2ccc(O)c(O)c2)oc2cc(O)cc(O)c12 [Quercetin, quercetin]",0.063,240000 ± 1e+08,0.016 ± 0.003,~27.5 µM and 27.5 µM,> 500,100 ± 1000,0.405 ± 0.004,68 ± 2,> 500000
"Oc1ccc(/C=C/c2cc(O)cc(O)c2)cc1 [Resveratrol, resveratrol]",0.4,7000 ± 200000,0.003 ± 0.002,78 ± 0.1 µM,180,2900 ± 600000,0.52 ± 0.003,–,–
